Measured values published in PMC12155096 (International Journal of Molecular Sciences, 2025).
Where two headings read alike, the source gives them in different places.

Experiments:
[1] = target: CYP3A4 (Homo sapiens, UniProt P08684)
[2] = target: Photinus pyralis (firefly) luciferase (Photinus pyralis, UniProt P08659); assay: biochemical; assay type: biochemical
[3] = target: human CYP2C9 (Homo sapiens, UniProt P11712)
[4] = target: T1, human CYP1A2 (Homo sapiens, UniProt P05177)
T1 sequence (P05177 1-516): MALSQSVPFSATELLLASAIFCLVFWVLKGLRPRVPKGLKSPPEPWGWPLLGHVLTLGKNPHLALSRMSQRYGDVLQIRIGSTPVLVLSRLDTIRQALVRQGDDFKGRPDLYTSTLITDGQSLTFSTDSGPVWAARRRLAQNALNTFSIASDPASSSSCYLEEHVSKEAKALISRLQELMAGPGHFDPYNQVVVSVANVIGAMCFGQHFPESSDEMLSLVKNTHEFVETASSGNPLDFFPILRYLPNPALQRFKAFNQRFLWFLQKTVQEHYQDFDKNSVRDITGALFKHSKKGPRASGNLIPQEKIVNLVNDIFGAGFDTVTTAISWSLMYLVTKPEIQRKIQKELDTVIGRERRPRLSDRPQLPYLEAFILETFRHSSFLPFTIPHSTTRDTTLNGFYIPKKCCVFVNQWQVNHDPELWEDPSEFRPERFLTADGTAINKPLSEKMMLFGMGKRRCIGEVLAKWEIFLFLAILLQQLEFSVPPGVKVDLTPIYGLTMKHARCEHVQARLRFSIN

[5] = target: human CYP2D6 (Homo sapiens, UniProt P10635)
[6] = target: human CYP2C19 (Homo sapiens, UniProt P33261)
[7] = read-out: Luciferase IC50 (half-maximal inhibitory concentration)

Photinus pyralis (firefly) luciferase, sequence (P08659 whole entry): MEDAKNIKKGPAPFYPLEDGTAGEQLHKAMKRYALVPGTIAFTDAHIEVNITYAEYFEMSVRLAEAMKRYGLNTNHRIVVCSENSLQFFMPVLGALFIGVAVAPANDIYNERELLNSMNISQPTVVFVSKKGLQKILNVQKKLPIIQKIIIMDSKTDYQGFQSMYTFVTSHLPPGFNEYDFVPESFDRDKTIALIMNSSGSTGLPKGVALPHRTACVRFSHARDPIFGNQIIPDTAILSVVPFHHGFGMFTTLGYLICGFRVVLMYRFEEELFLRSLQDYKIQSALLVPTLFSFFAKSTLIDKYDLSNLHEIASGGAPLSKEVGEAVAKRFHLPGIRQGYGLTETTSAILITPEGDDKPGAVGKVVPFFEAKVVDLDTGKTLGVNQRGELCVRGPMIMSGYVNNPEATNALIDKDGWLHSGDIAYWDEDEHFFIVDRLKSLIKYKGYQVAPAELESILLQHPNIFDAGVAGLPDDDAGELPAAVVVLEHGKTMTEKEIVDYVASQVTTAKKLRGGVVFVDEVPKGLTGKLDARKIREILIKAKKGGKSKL
human CYP2D6, sequence (P10635 whole entry): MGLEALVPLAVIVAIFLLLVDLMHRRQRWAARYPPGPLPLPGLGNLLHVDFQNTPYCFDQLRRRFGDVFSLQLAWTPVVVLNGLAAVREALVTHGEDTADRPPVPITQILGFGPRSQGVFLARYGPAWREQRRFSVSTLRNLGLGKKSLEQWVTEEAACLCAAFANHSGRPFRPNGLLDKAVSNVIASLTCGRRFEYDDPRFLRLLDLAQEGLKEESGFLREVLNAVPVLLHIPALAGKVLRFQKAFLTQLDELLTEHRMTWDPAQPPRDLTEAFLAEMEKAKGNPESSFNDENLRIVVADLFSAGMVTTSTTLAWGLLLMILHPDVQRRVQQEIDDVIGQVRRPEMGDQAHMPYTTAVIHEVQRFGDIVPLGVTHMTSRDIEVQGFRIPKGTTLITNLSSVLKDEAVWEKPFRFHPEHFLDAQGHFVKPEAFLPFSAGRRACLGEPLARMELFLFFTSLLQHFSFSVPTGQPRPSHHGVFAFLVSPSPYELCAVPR
human CYP2C19, sequence (P33261 whole entry): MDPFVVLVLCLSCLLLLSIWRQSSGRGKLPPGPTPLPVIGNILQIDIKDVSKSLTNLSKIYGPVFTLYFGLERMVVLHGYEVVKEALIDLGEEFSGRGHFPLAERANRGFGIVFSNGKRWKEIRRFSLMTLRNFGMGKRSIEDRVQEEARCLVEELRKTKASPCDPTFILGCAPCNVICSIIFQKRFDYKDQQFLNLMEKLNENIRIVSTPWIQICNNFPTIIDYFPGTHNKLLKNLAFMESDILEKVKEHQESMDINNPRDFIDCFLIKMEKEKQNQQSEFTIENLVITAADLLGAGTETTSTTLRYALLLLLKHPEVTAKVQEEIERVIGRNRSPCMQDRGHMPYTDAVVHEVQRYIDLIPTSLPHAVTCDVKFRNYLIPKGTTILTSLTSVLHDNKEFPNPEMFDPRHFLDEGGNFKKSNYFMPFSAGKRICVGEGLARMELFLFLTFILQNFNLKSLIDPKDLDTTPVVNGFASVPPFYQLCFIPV
human CYP2C9, sequence (P11712 whole entry): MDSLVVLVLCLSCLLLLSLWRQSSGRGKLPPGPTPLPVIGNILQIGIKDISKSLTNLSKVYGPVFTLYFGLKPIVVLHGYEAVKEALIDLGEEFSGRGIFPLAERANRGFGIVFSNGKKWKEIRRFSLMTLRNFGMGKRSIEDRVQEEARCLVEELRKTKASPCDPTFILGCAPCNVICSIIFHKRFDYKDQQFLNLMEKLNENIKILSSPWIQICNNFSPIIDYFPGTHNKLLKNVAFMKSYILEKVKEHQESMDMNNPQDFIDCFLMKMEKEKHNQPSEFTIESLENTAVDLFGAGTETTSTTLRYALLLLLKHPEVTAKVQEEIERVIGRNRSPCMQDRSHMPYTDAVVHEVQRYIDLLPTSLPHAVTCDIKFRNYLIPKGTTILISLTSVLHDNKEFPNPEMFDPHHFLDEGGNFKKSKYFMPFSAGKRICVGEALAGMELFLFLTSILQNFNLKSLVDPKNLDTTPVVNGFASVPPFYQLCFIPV
CYP3A4, sequence (P08684 whole entry): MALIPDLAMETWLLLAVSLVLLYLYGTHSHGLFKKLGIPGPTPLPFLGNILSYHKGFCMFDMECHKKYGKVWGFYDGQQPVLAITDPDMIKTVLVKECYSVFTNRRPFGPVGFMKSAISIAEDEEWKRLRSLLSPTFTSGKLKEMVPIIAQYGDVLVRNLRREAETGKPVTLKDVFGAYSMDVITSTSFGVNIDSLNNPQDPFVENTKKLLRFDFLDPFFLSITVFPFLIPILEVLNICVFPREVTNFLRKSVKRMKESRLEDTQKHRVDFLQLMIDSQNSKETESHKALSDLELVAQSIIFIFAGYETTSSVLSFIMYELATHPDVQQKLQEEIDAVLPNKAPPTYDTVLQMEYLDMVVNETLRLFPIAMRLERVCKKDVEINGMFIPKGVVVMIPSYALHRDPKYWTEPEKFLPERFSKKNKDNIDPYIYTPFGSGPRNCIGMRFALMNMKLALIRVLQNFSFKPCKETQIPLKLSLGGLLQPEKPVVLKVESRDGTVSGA

| SMILES | IC50 [1] | IC50 [3] | IC50 [4] | IC50 [5] | IC50 [6] | Luciferase IC50 (half-maximal inhibitory concentration) [2] | also measured |
| --- | --- | --- | --- | --- | --- | --- | --- |
| Cc1ccc([N+](=O)[O-])[c]2c1[O][Hg]2 [Nitromersol] | 8.08 µM | 0.87 µM | 4.36 µM | 0.78 µM | 1.28 µM |  | CYP3A4 Efficacy (in parenthesis) [1]: 8.08 ± 0.55 (-86 ± 6) %; Luciferase Efficacy (in parenthesis) [2]: 12.48 ± 4.81 (-100 ± 9) %; IC50 [2, 7]: 12.5 µM; CYP2C9 Efficacy (in parenthesis) [3]: 0.87 ± 0 (-104 ± 2) %; CYP1A2 Efficacy (in parenthesis) [4]: 4.36 ± 1.13 (-86 ± 7) %; CYP2D6 Efficacy (in parenthesis) [5]: 0.78 ± 0.09 (-101 ± 2) %; CYP2C19 Efficacy (in parenthesis) [6]: 1.28 ± 0.79 (-139 ± 25) % |
| CN1CCN(C2Cc3ccccc3Sc3ccc(Cl)cc32)CC1.O=C(O)/C=C\C(=O)O (stereo not drawn) [Octoclothepine maleate] | 2.28 µM | 30.6 µM | 28.3 µM | 0.26 µM | 11.5 µM |  | Luciferase IC50 [2]: Inactive |
| O=S(=O)([O-])C(F)(F)C(F)(F)C(F)(F)C(F)(F)C(F)(F)C(F)(F)C(F)(F)C(F)(F)F.[K+] [PFOS-K] |  | 0.61 µM |  |  | 39.6 µM | Inactive | CYP3A4 IC50 (half-maximal inhibitory concentration) [1]: Inactive; CYP1A2 IC50 (half-maximal inhibitory concentration) [4]: Inactive; CYP2D6 IC50 (half-maximal inhibitory concentration) [5]: Inactive |
| O=S(=O)(O)C(F)(F)C(F)(F)C(F)(F)C(F)(F)C(F)(F)C(F)(F)C(F)(F)C(F)(F)F [PFOS] | 80 µM | 0.51 µM | 32.3 µM | 28.4 µM | 23.4 µM |  | IC50 [2, 7]: 71.3 µM |
| OC(c1ccc(Cl)cc1)(c1ccc(Cl)cc1)c1cccnc1 [Parinol] | 2.75 µM | 0.4 µM | 38.5 µM | 14.2 µM | 0.08 µM | Inactive | CYP3A4 Efficacy (in parenthesis) [1]: 2.75 ± 0.47 (-69 ± 3) %; CYP2C9 Efficacy (in parenthesis) [3]: 0.4 ± 0.05 (-109 ± 9) %; CYP1A2 Efficacy (in parenthesis) [4]: 38.47 ± 2.51 (-60 ± 13) %; CYP2D6 Efficacy (in parenthesis) [5]: 14.17 ± 5.05 (-105 ± 7) %; CYP2C19 Efficacy (in parenthesis) [6]: 0.08 ± 0.01 (-151 ± 12) % |
| CO/C=C(/C(=O)OC)c1ccccc1COc1cccc(C(F)(F)F)n1 [Picoxystrobin] |  | 38.4 µM | 32.1 µM | 38.4 µM | 0.99 µM | Inactive | AC50 [1]: 2.32 µM; CYP3A4 IC50 (half-maximal inhibitory concentration) [1]: 2.32 ± 0.75 (38 ± 1) µM; AC50 [3]: 38.4 µM; AC50 [4]: 32.1 µM; AC50 [5]: 38.4 µM; AC50 [6]: 0.99 µM |
| COc1cc2c(cc1OC)C(C(C(=O)N(CCc1ccc(OC)c(OC)c1OC)CCc1ccc(OC)c(OC)c1OC)c1ccccc1)=NCC2.Cl (stereo not drawn) [Pinokalant hydrochloride] | 0.57 µM |  | 37.3 µM |  | 19.6 µM | Inactive | CYP2C9 Efficacy [3]: 11.86 ± 0.77 (-103 ± 7) %; CYP2D6 Efficacy [5]: 9.34 ± 4.19 (-64 ± 10) % |
| CC(=O)/C=C/c1ccc2c(c1)OCO2 [Piperonal acetone] | 4.65 µM |  | 0.25 µM |  | 14.5 µM |  | IC50 [2, 7]: 40.3 µM; CYP2C9 Efficacy [3]: 8.04 ± 0.92 (-118 ± 10) %; CYP2D6 Efficacy [5]: 31 ± 5.28 (-103 ± 9) % |
| CC(=O)CCc1ccc2c(c1)OCO2 [Piperonyl acetone] | 18.5 µM |  | 0.75 µM |  | 29.9 µM | Inactive | CYP2C9 Efficacy [3]: 22.26 ± 9.54 (-102 ± 10) %; CYP2D6 Efficacy [5]: 44.96 ± 16.37 (-42 ± 9) % |
| O=C(NCc1cccnc1)Nc1ccc([N+](=O)[O-])cc1 [Pyrinuron] | 0.93 µM | 5.43 µM | 15.5 µM | 44.8 µM | 3.28 µM | Inactive | CYP3A4 Efficacy (in parenthesis) [1]: 0.93 ± 0.12 (-76 ± 5) %; CYP2C9 Efficacy (in parenthesis) [3]: 5.43 ± 0.35 (-105 ± 9) %; CYP1A2 Efficacy (in parenthesis) [4]: 15.45 ± 2.63 (-100 ± 0) %; CYP2D6 Efficacy (in parenthesis) [5]: 44.8 ± 15.98 (-64 ± 3) %; CYP2C19 Efficacy (in parenthesis) [6]: 3.28 ± 1.56 (-135 ± 13) % |
| C[C@@H]1CN(CCCn2c3ccccc3c3ccccc32)C[C@H](C)N1.Cl.Cl [Rimcazole dihydrochloride] | 1.84 µM |  | 10.6 µM |  |  |  | Luciferase IC50 [2]: Inactive; CYP2C9 IC50 [3]: Inactive; CYP2D6 Efficacy [5]: 0.4 ± 0.03 (-102 ± 4) %; CYP2C19 IC50 [6]: Inactive |
| Cn1ccc2cc3c(cc21)CCN3C(=O)Nc1cccnc1 [SB-206553] | 3.55 µM |  | 0.07 µM |  |  |  | CYP3A4 Efficacy (in parenthesis) [1]: 3.55 ± 0.64 (-82 ± 5) %; Luciferase Efficacy (in parenthesis) [2]: 4.77 ± 1.70 (-73 ± 12) %; IC50 [2, 7]: 4.77 µM; CYP2C9 IC50 (half-maximal inhibitory concentration) [3]: Inactive; CYP1A2 Efficacy (in parenthesis) [4]: 0.07 ± 0.01 (-96 ± 6) %; CYP2D6 IC50 (half-maximal inhibitory concentration) [5]: Inactive; CYP2C19 IC50 (half-maximal inhibitory concentration) [6]: Inactive |
| COc1cccc(CCc2ccccc2OCC(CN(C)C)OC(=O)CCC(=O)O)c1.Cl (stereo not drawn) [Sarpogrelate hydrochloride] | 6.72 µM |  | 16.2 µM |  | 36.8 µM | Inactive | CYP2C9 IC50 (half-maximal inhibitory concentration) [3]: Inactive; CYP2D6 Efficacy [5]: 0.42 ± 0.24 (-101 ± 2) % |
| CC(C)CC(N(C)C)C1(c2ccc(Cl)cc2)CCC1.Cl (stereo not drawn) [Sibutramine hydrochloride] | 0.94 µM |  |  | 4.24 µM | 8.47 µM | Inactive | CYP3A4 Efficacy (in parenthesis) [1]: 0.94 ± 0.06 (-73 ± 3) %; CYP2C9 IC50 (half-maximal inhibitory concentration) [3]: Inactive; CYP1A2 IC50 (half-maximal inhibitory concentration) [4]: Inactive; CYP2D6 Efficacy (in parenthesis) [5]: 4.24 ± 0.72 (-88 ± 6) %; CYP2C19 Efficacy (in parenthesis) [6]: 8.47 ± 1.44 (-127 ± 8) % |
| CCNc1nc(Cl)nc(NC(C)(C)C)n1 [Terbutylazine] |  | 0.62 µM | 10.8 µM |  | 31.2 µM |  | CYP3A4 IC50 [1]: Inactive; Luciferase IC50 [2]: Inactive; CYP2D6 IC50 [5]: Inactive |
| CCN(CC)CCOc1ccc(Cc2ccccc2)cc1.Cl [Tesmilifene hydrochloride] |  |  |  | 12.1 µM | 0.43 µM | Inactive | AC50 [1]: 14.2 µM; CYP3A4 IC50 (half-maximal inhibitory concentration) [1]: 14.21 ± 3.96 (44 ± 9) µM; CYP2C9 IC50 (half-maximal inhibitory concentration) [3]: Inactive; CYP1A2 IC50 (half-maximal inhibitory concentration) [4]: Inactive; AC50 [5]: 12.1 µM; AC50 [6]: 0.43 µM |
| CCCCCCCC[N+](CCCCCCCC)(CCCCCCCC)CCCCCCCC.[Br-] [Tetra-N-octylammonium bromide] | 1.87 µM | 34.2 µM | 73.8 µM | 0.4 µM | 16.4 µM |  | IC50 ([2]; read-out: Luciferase IC50): 89.2 µM |
| CCCCCCCC[P+](CCCCCCCC)(CCCCCCCC)CCCCCCCC.[Br-] [Tetraoctylphosphonium bromide] | 1.73 µM | 23.2 µM | 57.7 µM | 0.75 µM | 14 µM |  | IC50 ([2]; read-out: Luciferase IC50): 65.5 µM |
| N#Cc1c(-c2ccc(Cl)cc2)[nH]c(C(F)(F)F)c1Br [Tralopyril] |  | 10.4 µM | 0.33 µM | 65.8 µM | 35 µM | Inactive | CYP3A4 IC50 (half-maximal inhibitory concentration) [1]: Inactive |
| C=CCOC(=O)c1ccc(C(=O)OCC=C)c(C(=O)OCC=C)c1 [Triallyl trimellitate] | 1.5 µM | 0.33 µM | 5.66 µM | 46.2 µM | 0.15 µM | Inactive |  |
| CCCC[P+](C)(CCCC)CCCC.COS(=O)(=O)[O-] [Tributylmethylphosphonium methyl sulfate] |  |  |  | 0.24 µM | 63.3 µM |  | CYP3A4 IC50 [1]: Inactive; Luciferase IC50 [2]: Inactive; CYP2C9 IC50 [3]: Inactive; CYP1A2 IC50 [4]: Inactive |
| CCC(COC(=O)c1cc(OC)c(OC)c(OC)c1)(c1ccccc1)N(C)C.O=C(O)/C=C\C(=O)O (stereo not drawn) [Trimebutine maleate] | 4.07 µM | 15.5 µM |  | 0.67 µM | 30.3 µM | Inactive | CYP1A2 IC50 (half-maximal inhibitory concentration) [4]: Inactive |
| c1cc[c]([Bi]([c]2ccccc2)[c]2ccccc2)cc1 [Triphenylbismuth] | 2.36 µM | 0.73 µM |  | 31.9 µM | 0.17 µM |  | Luciferase IC50 [2]: Inactive; CYP1A2 IC50 [4]: Inactive |
| [Cl][Bi]([Cl])([c]1ccccc1)([c]1ccccc1)[c]1ccccc1 [Triphenylbismuthine dichloride] | 15 µM | 0.88 µM | 17.2 µM | 7.15 µM | 0.28 µM |  | IC50 ([2]; read-out: Luciferase IC50): 13.2 µM |
| CC(=O)[O][Sn]([c]1ccccc1)([c]1ccccc1)[c]1ccccc1 [Triphenyltin acetate] | 8.45 µM | 1.36 µM | 47.5 µM | 0.81 µM | 4.84 µM |  | IC50 ([2]; read-out: Luciferase IC50): 3.81 µM |
